Reference: PubChem BioAssay AID2060343 (Molecular Pharmacology Branch, DTP, NCI, 2025)

Tested on: 138582-337-R-J1-PDC spheroids with HUVEC/MSC, viability
Assay: Anticancer human tumor 138582-337-R-J1-PDC patient-derived Merkel cell tumor cell line growth inhibition [IpAb]
Settings: for IC50: curve of first compound; for viability, T/C: stronger effect = lower value
Source text: Combinatorial screen of targeted agents with ipatasertib and abemaciclib in multi-cell type tumor spheroids
A high-throughput screen of multi-cell type tumor spheroids was designed to identify active combinations of targeted small molecules and ipatasertib or abemaciclib. Complex spheroids include a stromal component modeled by human endothelial cells (HUVEC) and fibroblasts modeled by human mesenchymal stem cells (MSCs). The concentration ranges selected for each drug and investigational agent were based upon clinically achievable concentrations if the clinical Cmax of the agent was known.
Compounds. The drugs and investigational agents: ipatasertib (NSC767898), abemaciclib(NSC768073), selumetinib (NSC741078), trametinib (758246), adavosertib (NSC754352), everolimus (NSC733504), sapanisertib (NSC764658), vemurafenib (NSC761431), venetoclax (NSC766270), copanlisib (NSC809693), apelisib (NSC765974), palbociblib (NSC758247), vemurafenib (NSC761431), dabrafenib (NSC764134), ravoxertinib (NSC781343), BMS-387032 (NSC767048), sotorasib (NSC818433), talazoparib (NSC767125) and afursertib (NSC778305), were obtained from the National Cancer Institute (NCI) Developmental Therapeutics Program Chemical Repository. The FDA-approved anticancer drug set is available from the NCI Developmental Therapeutics Program. […] The stock solutions were prepared in dimethyl sulfoxide (DMSO, Sigma-Aldrich, St. Louis, MO, cat. D2650) at 800-fold the tested concentration and stored at -70 degrees C prior to their use. All drugs and investigational agents were tested over a range starting from a high concentration at or near the clinical Cmax and decreasing in half-log increments. If the clinical Cmax for an agent had not been determined, the highest concentration tested was 10 microM.
NCI60 Cell Culture. NCI60 cell lines were obtained from the NCI Developmental Therapeutics Program Tumor Repository. For each lot of cells, the Repository performed Applied Biosystems AmpFLSTR Identifiler testing with PCR amplification to confirm consistency with the published Identifier STR profile for each cell line. Cells were kept in continuous culture for no more than 20 passages. The optimal seeding densities for each of the cell lines at each time point assessed were determined prior to performing the concentration response studies. Briefly, the NCI60 human tumor lines were grown as monolayers in RPMI 1640 medium supplemented with 10% FBS and 2 mmol/L L-glutamine.
An additional 9 lines were from the NCI60 cell line panel including MDA-MB-231 breast carcinoma, MDA-MB-468 breast carcinoma, MCF7 breast carcinoma, Hs578T breast carcinoma, MALME-3M melanoma, SK-MEL-2 melanoma, SK-OV-3 ovarian carcinoma, DU-145 prostate carcinoma, PC-3 prostate carcinoma, all cell lines along with major genetic alterations are listed on Table 2. Pooled donor human umbilical vein endothelial cells (HUVEC, Lonza, cat. CC-2519) and human mesenchymal stem cells (hMSC, Lonza, cat. PT-2501) were purchased from Lonza (Walkersville, MD).
PDMR cell lines were grown in complete medium (DC medium): Dulbecco's modified Eagle's medium (DMEM)/F12 supplemented with 5% fetal bovine serum (FBS), 2 mM L-glutamine, 100 U/mL penicillin and 100 µg/ml streptomycin, 0.4 µg/ml hydrocortisone, 10 ng/ml epidermal growth factor (EGF) recombinant human protein, 24 µg/mL adenine, and 0.1 mg/mL primocin. During culture from frozen stock vials, PDMR cells were cultured in the same medium containing 10 µM Y-27632 (see Table 3). The PDCs were cultured in complete DMEM/F12 media without 10 microM Y-27632 dihydrochloride for at least two passages prior to the screen. The pooled donor HUVEC and hMSC were cultured in endothelial cell growth medium 2 (PromoCell, Heidelberg, Germany, cat. C-22011) and mesenchymal stem cell growth medium 2 (PromoCell, cat. C-28009), respectively. For all experiments, HUVEC and hMSC were used at passages </=5.
[…]

[1] = second compound 0.1 µM, first compound 0.0316 µM
[2] = second compound 0.1 µM, first compound 0.1 µM
[3] = second compound 0.1 µM, first compound 0.316 µM
[4] = second compound 0.1 µM, first compound 1 µM
[5] = second compound 0.1 µM, first compound 3.16 µM
[6] = second compound 0.1 µM, first compound 10 µM
[7] = second compound 0.316 µM, first compound 0.0316 µM
[8] = second compound 0.316 µM, first compound 0.1 µM
[9] = second compound 0.316 µM, first compound 0.316 µM
[10] = second compound 0.316 µM, first compound 1 µM
[11] = second compound 0.316 µM, first compound 3.16 µM
[12] = second compound 0.316 µM, first compound 10 µM
[13] = second compound 1 µM, first compound 0.0316 µM
[14] = second compound 1 µM, first compound 0.1 µM
[15] = second compound 1 µM, first compound 0.316 µM
[16] = second compound 1 µM, first compound 1 µM
[17] = second compound 1 µM, first compound 3.16 µM
[18] = second compound 1 µM, first compound 10 µM
[19] = second compound 3.16 µM, first compound 0.0316 µM
[20] = second compound 3.16 µM, first compound 0.1 µM
[21] = second compound 3.16 µM, first compound 0.316 µM
[22] = second compound 3.16 µM, first compound 1 µM
[23] = second compound 3.16 µM, first compound 3.16 µM
[24] = second compound 3.16 µM, first compound 10 µM
[25] = second compound 10 µM, first compound 0.0316 µM
[26] = second compound 10 µM, first compound 0.1 µM
[27] = second compound 10 µM, first compound 0.316 µM
[28] = second compound 10 µM, first compound 1 µM
[29] = second compound 10 µM, first compound 3.16 µM
[30] = second compound 10 µM, first compound 10 µM
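Further: spheroids exposed to compounds for seven days.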
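Wherever viability, T/C is given: 100% = DMSO vehicle control viability.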

C=CCn1c(=O)c2cnc(Nc3ccc(N4CCN(C)CC4)cc3)nc2n1-c1cccc(C(C)(C)O)n1 + CC(C)NCC(C(=O)N1CCN(c2ncnc3c2C(C)CC3O)CC1)c1ccc(Cl)cc1
IC50 (second compound 0.1 µM): > 10 µM
IC50 (second compound 0.316 µM): > 10 µM
IC50 (second compound 1 µM): > 10 µM
IC50 (second compound 3.16 µM): < 0.0316 µM
IC50 (second compound 10 µM): < 0.0316 µM
viability, T/C [1]: 96.8%
viability, T/C [2]: 95.6%
viability, T/C [3]: 78%
viability, T/C [4]: 99.6%
viability, T/C [5]: 99.1%
viability, T/C [6]: 134%
viability, T/C [7]: 85.5%
viability, T/C [8]: 73.6%
viability, T/C [9]: 74.7%
viability, T/C [10]: 71.4%
viability, T/C [11]: 94.2%
viability, T/C [12]: 117%
viability, T/C [13]: 66.7%
viability, T/C [14]: 73.5%
viability, T/C [15]: 54.5%
viability, T/C [16]: 63.6%
viability, T/C [17]: 83.4%
viability, T/C [18]: 89.1%
viability, T/C [19]: 58.1%
viability, T/C [20]: 53.6%
viability, T/C [21]: 38.9%
viability, T/C [22]: 46.6%
viability, T/C [23]: 74.8%
viability, T/C [24]: 73.8%
viability, T/C [25]: 54.6%
viability, T/C [26]: 41.5%
viability, T/C [27]: 33.9%
viability, T/C [28]: 42%
viability, T/C [29]: 60.1%
viability, T/C [30]: 55.5%

C=CC(=O)N1CCN(c2nc(=O)n(-c3c(C)ccnc3C(C)C)c3nc(-c4c(O)cccc4F)c(F)cc23)C(C)C1 (stereo not given) + CC(C)NCC(C(=O)N1CCN(c2ncnc3c2C(C)CC3O)CC1)c1ccc(Cl)cc1
IC50 (second compound 0.1 µM): > 10 µM
IC50 (second compound 0.316 µM): > 10 µM
IC50 (second compound 1 µM): > 10 µM
IC50 (second compound 3.16 µM): > 10 µM
IC50 (second compound 10 µM): 0.0316 µM
viability, T/C [1]: 90.2%
viability, T/C [2]: 95.5%
viability, T/C [3]: 91.4%
viability, T/C [4]: 101%
viability, T/C [5]: 115%
viability, T/C [6]: 168%
viability, T/C [7]: 90.6%
viability, T/C [8]: 86.2%
viability, T/C [9]: 83.5%
viability, T/C [10]: 90.1%
viability, T/C [11]: 105%
viability, T/C [12]: 132%
viability, T/C [13]: 71.9%
viability, T/C [14]: 66.6%
viability, T/C [15]: 71.4%
viability, T/C [16]: 74.9%
viability, T/C [17]: 86.6%
viability, T/C [18]: 77.5%
viability, T/C [19]: 57.1%
viability, T/C [20]: 56.8%
viability, T/C [21]: 59.4%
viability, T/C [22]: 63.4%
viability, T/C [23]: 69%
viability, T/C [24]: 54%
viability, T/C [25]: 38.7%
viability, T/C [26]: 49.9%
viability, T/C [27]: 47.9%
viability, T/C [28]: 47.6%
viability, T/C [29]: 52.4%
viability, T/C [30]: 32.3%
